Source: patent US11185077B2, “Attractants for rodents” (priority 2016, dated 2021)

System: house mice, Mus musculus
Test: Laboratory T-tube bioassay: behavioral responses of mice (first choice, time spent)
Format: in vivo
Conditions: female mice
From the text: A laboratory experimental apparatus was constructed to test the behavioral responses of mice to the compositions described herein. The experimental design is depicted in FIG. 4 and includes three clear Plexiglas chambers: release chamber (1: 40 cm×20 cm×30 cm for placement of a mouse at the onset of a bioassay), and response chambers (3a and 3b: each 60 cm×30 cm×40 cm) interconnected by a Pyrex glass T-tube (2; stem: 65 cm long, side arms: 45 cm long, all 10 cm in diameter). Each response chamber housed a test stimulus in a Petri dish (4a, 4b; 3 cm diam.). For each replicate, a single mouse was deprived of food, but not water, for 4-6 h before being placed into chamber 1, which was illuminated by dim red light to facilitate observations of the mouse's position. The mouse was allowed to enter the stem of the T-tube (2) on its own accord in response to test stimuli, which were randomly assigned to response chamber 3a or 3b.
Both response chambers were fitted with a Petri dish (4a, 4b) containing a Whatman #1 filter paper disk (25 mm diam.) treated with a randomly assigned treatment stimulus or control stimulus. For each bioassay, a single mouse was tested and the following data were recorded: (1) the treatment or control chamber the mouse entered first with all four paws (“first-choice data”); and (2) the position of the mouse at each of 30 30-sec intervals after its first entry into the T-tube. Position data were then used to calculate the proportion of time a mouse spent in the treatment or control chamber (“time-spent data”).
Following each replicate, the chambers and T-tube were cleaned with a Percept® disinfectant detergent (Virox Technologies Inc. Mississaugua ON L5N 5M4, Canada) and wiped with 70% ethanol.
First-choice data and the time spent in a trap box quadrant were analyzed using a χ^2 test with Yates' correction for continuity (α=0.05) and the Student's t-test (α=0.05), respectively.
In Experiment 5, the laboratory experimental design of FIG. 4 was used to evaluate the responses of female mice to synthetic androstenone. For Experiment 5, the treatment stimulus consisted of filter paper treated with 4 μg of synthetic androstenone (see Experiments 1 and 2), and the control stimulus consisted of filter paper treated with the 50 μl of ether without androstenone.
In Experiment 6, the laboratory experimental design of FIG. 4 was used to evaluate the responses of male mice to blends of synthetic progesterone and estrogen. For Experiment 6, the treatment stimulus consisted of filter paper treated with a 4-μg blend of the synthetic hormones progesterone and estrogen formulated in 50 μl of ether at a ratio of 100:1 and a control stimulus which consisted of filter paper treated with 50 μl of ether.
In Experiments 9 to 11, the laboratory experimental design of FIG. 4 was used to evaluate the responses of male mice to synthetic progesterone and estrogen. For the Experiments, the treatment stimulus consisted of filter paper treated with a blend of the synthetic progesterone (50 ng) and estrogen (25 ng) (hereinafter “synthetic hormone blend”) (Experiment 9), progesterone alone (75 ng) (Experiment 10) or estrogen alone (75 ng) (Experiment 11) formulated in 50 μl ether. The control stimulus consisted of filter paper treated with 50 μl of ether for each of Experiments 9 to 11.
Experiment 12 used the laboratory experimental apparatus of FIG. 4 to test choices of female mice between filter paper treated with 75 ng of synthetic testosterone (the treatment stimulus) formulated in 50 μl of ether and control filter paper treated with 50 μl of ether. Experiment 13 was identical to Experiment 12 except that the treatment stimulus consisted of filter paper treated with 75 ng of synthetic androstenone.

[1] = Experiment 5, 4 μg synthetic androstenone
[2] = Experiment 13, 75 ng synthetic androstenone
[3] = Experiment 12, 75 ng synthetic testosterone

| Compound | first entry into baited response chamber vs control chamber [1] | time spent in response chamber with stimulus vs control chamber [1] | effect on female mice (Experiment 5, 4 μg synthetic androstenone vs 50 μl ether) | first entry into baited chamber vs control chamber [2] | responses by female mice compared with testosterone [2] | time spent in baited chamber vs control chamber [2] | first entry into baited chamber vs control chamber [3] | preference in time spent for the treated chamber over control [3] | time spent in baited chamber vs control chamber [3] | effect on female mice (Experiment 12, 75 ng synthetic testosterone in 50 μl ether vs ether) |
| --- | --- | --- | --- | --- | --- | --- | --- | --- | --- | --- |
| C[C@]12CCC(=O)C[C@@H]1CC[C@@H]1[C@@H]2CC[C@]2(C)C=CC[C@@H]12 [androstenone, 5α-androst-16-en-3-one] | as often as | significantly more time | positive effect | as often as | much weaker | slightly more time | – | – | – | – |
| C[C@]12CC[C@H]3[C@@H](CCC4=CC(=O)CC[C@@]43C)[C@@H]1CC[C@@H]2O [testosterone, (8R,9S,10R,13S,14S,17S)-17-hydroxy-10,13-dimethyl-1,2,6,7,8,9,11,12,14,15,16,17-dodecahydrocyclopenta[a]phenanthren-3-one, reference compound] | – | – | – | – | – | – | significantly more often | over threefold preference | significantly more time | very positive effect |
